We go through three compounds from patent US10150804B2, “Compositions and methods for imaging cancer” (BRITISH COLUMBIA CANCER AGENCY BRANCH, priority 2014, dated 2018).

The target of one data set is T1, sstr1 (Homo sapiens, UniProt P30872).
T1 construct: purchased PerkinElmer; host or cells: Chinese hamster ovary K1 cells (transfected)
Description: standard filtration competitive binding assay, sstr1 membranes. The settings on record: 0.2 nM 125I standard. The protocol:
After successful synthesis, the activity of ^19F-AMBF3-TATE was examined in vitro. Membranes from Chinese hamster ovary K1 cells transfected with sstr1, sstr2, sstr3, sstr5, and [^125I]-Tyr-somatostatin-14 were obtained from PerkinElmer. […] Briefly, membranes ([…]) were incubated with the ^125I-labelled standard at a concentration of 0.05 nM for sstr2 or 0.2 nM for other subtypes. […] After incubation (37° C., 1 h), the wells were aspirated and washed 8 times with 50 mM ice-cold buffer (Tris-HCl, pH 7.4) over grade GF/B filters. The filters were removed and counted by a γ counter (Cobra II; Packard). Data were fitted to a 1-site competition model (GraphPad Prism 6.1 software) to calculate Ki.

Data set [1] can be described thus: 19F-NMR kinetic analysis of solvolysis/defluoridation of AMBF3. In kind it is physicochemical. The protocol: Data are scaled 1000,000 min.
For data set [2], the system named is AR42J tumour-bearing mice. The note with it: excess competitor 69/71Ga-DOTATATE
Description: After labelling, imaging was undertaken. […] Rat pancreatic adenocarcinoma cells (10^7 AR42J cells) were freshly expanded in a mixture of phosphate-buffered saline and Matrigel (Corning) and inoculated subcutaneously in female immunocompromised mice (NOD SCID [non-obese diabetic severe combined immunodeficient] IL2r-γ-null, bred in house). The tumours were grown for 2 wk until they reached 5-7 mm in diameter. […] Sixty minutes after injection, the mice were anesthetized with isoflurane and euthanized by carbon dioxide. The organs were harvested, rinsed with saline, blotted dry, and collected in previously weighed tubes. The tubes containing the organs were counted in a Cobra-II γ counter. The tissue weight and associated count per minute were used to calculate the percentage injected dose per gram of tissue (% ID/g). Images were acquired using a multimodality PET/CT system (Inveon; Siemens).

Like-named read-outs stand apart in the source and are kept apart here.

T1 sequence (P30872 whole entry): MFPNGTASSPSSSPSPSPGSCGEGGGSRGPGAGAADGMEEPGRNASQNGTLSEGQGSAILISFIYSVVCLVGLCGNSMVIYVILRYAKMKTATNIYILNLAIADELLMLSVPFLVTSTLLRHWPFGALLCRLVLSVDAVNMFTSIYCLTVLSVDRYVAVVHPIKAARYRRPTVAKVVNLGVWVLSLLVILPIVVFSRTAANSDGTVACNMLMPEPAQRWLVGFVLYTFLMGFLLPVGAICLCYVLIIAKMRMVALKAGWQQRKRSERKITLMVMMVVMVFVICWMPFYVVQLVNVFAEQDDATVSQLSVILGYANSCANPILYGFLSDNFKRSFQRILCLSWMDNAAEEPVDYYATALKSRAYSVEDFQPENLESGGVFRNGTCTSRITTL

`C[C@@H](O)[C@H](NC(=O)[C@@H]1CSSC[C@H](NC(=O)[C@@H](Cc2ccccc2)NC(=O)Cn2cc(C[N+](C)(C)C[B-](F)(F)F)nn2)C(=O)N[C@@H](Cc2ccc(O)cc2)C(=O)N[C@H](Cc2c[nH]c3ccccc23)C(=O)N[C@@H](CCCCN)C(=O)N[C@@H]([C@@H](C)O)C(=O)N1)C(=O)O` [AMBF3-TATE]: on sstr1, the “displacement of binding to sstr1” value was “No significant displacement”. `C#CC[N+](C)(C)C[B-](F)(F)F` [alkynyl-AMBF3, N-propargyl-N,N-dimethyl-ammoniomethyltrifluoroborate]: the half-life in data set [1] (19F NMR, read-out: solvolysis t1/2 (converted)) was 312 h; in data set [1] (19F-NMR, first-order fit (FIG. 10), read-out: half-life of defluoridation), 0.325 h.

^18F-AMBF3-TATE: the “blocking efficiency (tumour uptake)” value in data set [2] stood at 97%.
